Series [1] concerns the target Acetylcholinesterase (Electrophorus electricus, UniProt O42275). The series is described as follows: Inhibition of electric eel AChE using acetylthiocholine iodide as substrate incubated for 15 mins by Ellman's method.
The next series can be described thus: in vitro. As to conditions: PAMPA. In general terms: PAMPA measures passive passage across an artificial lipid membrane.
Series [2] in a line: Lipophilicity, log P of the compound. It counts as physicochemical. To be noted: octanol/water.
The next series in a line: physchem. To be noted: octanol/water.
In series [3] the target is Acetylcholinesterase (Homo sapiens, UniProt P22303).
Acetylcholinesterase (Homo sapiens, UniProt P22303), sequence (P22303 whole entry): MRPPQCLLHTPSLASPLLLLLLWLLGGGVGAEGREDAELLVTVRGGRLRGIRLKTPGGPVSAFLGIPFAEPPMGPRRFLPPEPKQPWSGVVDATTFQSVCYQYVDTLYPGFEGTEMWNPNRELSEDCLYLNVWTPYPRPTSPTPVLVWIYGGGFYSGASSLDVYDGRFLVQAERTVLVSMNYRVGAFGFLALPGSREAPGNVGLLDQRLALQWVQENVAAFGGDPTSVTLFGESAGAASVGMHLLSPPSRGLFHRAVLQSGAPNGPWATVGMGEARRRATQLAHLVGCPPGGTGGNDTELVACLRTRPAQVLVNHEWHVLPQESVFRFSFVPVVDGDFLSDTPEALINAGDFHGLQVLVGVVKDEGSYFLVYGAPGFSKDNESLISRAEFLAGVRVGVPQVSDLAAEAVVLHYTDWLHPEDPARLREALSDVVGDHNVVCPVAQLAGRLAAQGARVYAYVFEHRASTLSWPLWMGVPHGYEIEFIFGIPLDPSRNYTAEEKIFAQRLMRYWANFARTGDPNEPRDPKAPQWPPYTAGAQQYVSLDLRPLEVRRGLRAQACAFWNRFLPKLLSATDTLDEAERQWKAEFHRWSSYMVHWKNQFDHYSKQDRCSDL
Description: Inhibition of AChE (unknown origin)

Data on 22 molecules can be found in ChEMBL document CHEMBL5537214 (RSC Med Chem, 2024).

By IC50 is commonly meant the point on the concentration scale where inhibition reaches its midpoint. Read a high IC50 as weaker potency in that assay. By Papp is commonly meant the rate of passage across a membrane or cell layer, normalised by area and donor concentration. A high value points to ready permeation. In general, logP refers to the decadic logarithm of the partition coefficient of the neutral form, usually between octanol and water. Usually logD stands for lipophilicity at a set pH, counting ionised and neutral species.

Some results are limits rather than exact numbers.

Acetylcholinesterase (Electrophorus electricus, UniProt O42275), sequence (O42275 whole entry): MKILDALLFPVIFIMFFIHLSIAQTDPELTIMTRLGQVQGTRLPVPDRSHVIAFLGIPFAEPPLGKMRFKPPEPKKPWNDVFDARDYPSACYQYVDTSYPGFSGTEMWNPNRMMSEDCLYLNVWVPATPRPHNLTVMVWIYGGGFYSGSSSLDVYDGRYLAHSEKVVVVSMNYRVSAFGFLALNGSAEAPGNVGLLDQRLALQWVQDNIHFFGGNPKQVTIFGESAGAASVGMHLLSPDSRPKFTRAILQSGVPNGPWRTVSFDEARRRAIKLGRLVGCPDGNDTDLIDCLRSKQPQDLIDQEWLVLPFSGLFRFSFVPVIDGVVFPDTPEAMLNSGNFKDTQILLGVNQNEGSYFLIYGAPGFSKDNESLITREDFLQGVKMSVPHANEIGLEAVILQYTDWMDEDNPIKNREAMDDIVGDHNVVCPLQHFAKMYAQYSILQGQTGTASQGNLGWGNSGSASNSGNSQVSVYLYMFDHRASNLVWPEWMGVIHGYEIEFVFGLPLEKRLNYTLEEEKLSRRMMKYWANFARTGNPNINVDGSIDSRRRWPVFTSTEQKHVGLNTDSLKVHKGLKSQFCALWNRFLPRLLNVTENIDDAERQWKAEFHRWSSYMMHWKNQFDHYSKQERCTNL
Description for physchem: Lipophilicity, log D of compound

In turn, `O=C1c2ccccc2C(=O)N1CCC1CCN(Cc2ccccc2)CC1` displayed an IC50 against Acetylcholinesterase [1] of 0.0132 µM.
For the molecule `COc1cc2c(cc1OC)C(=O)C(CC1CCNCC1)C2` (centres undefined), the IC50 against Acetylcholinesterase [1] was determined as 9.45 µM.
As to `COc1cc2c(cc1OC)C(=O)C(CC1CCN(C(=O)c3ccccc3)CC1)C2` (centres undefined), the IC50 at Acetylcholinesterase [1] came out at 17.9 µM.
In turn, `COc1cc2c(cc1OC)C(=O)C(CC1CCN(CCN)CC1)C2` (centres undefined) registered an IC50 against Acetylcholinesterase [1] of 11.2 µM. This IC50 lies about 1.6-fold lower than the previous one.
`Nc1ccc(CN2CCC(CCN3C(=O)c4ccccc4C3=O)CC2)cc1` returned an IC50 at Acetylcholinesterase [1] of 0.327 µM.
Regarding `Nc1cccc(CN2CCC(CCN3C(=O)c4ccccc4C3=O)CC2)c1`, the apparent permeability coefficient (Papp) at 8 h in “in vitro” turned out to be 29 nm/s. The same molecule returned an IC50 at Acetylcholinesterase [1] of 0.15 µM.
Molecule `O=C1c2ccccc2C(=O)N1CC1CCN(Cc2ccccc2)CC1` had an apparent permeability (Papp) at 8 h in the series “in vitro” of 107 nm/s. The molecule further came in with a 50% inhibitory concentration (IC50) at Acetylcholinesterase [1] of 22.8 µM.
The molecule `COc1cc2c(cc1OC)C(=O)C(CC1CCN(Cc3cccc(NC(=O)c4ccccc4)c3)CC1)C2` (centres undefined) gave an IC50 on Acetylcholinesterase [1] of 22.8 µM.
For the molecule `COc1cc2c(cc1OC)C(=O)C(CC1CCN(Cc3cccc(CN)c3)CC1)C2` (centres undefined), in the series “in vitro”, the apparent permeability (Papp) at 8 h was 15 nm/s. At Acetylcholinesterase [1], this molecule displayed an IC50 of 1.03 µM.
As to `COc1cc2c(cc1OC)C(=O)C(CC1CCN(CCCN)CC1)C2` (centres undefined), the half-inhibitory concentration (IC50) against Acetylcholinesterase [1] turned out to be 10.8 µM.
The same measure, in the same setting: for `COc1cc2c(cc1OC)C(=O)C(CC1CCN(CCCCN)CC1)C2` (centres undefined) the value was 14.6 µM.
Molecule `O=C(c1ccccc1)N1CCC(CCN2C(=O)c3ccccc3C2=O)CC1` displayed a half-maximal inhibitory concentration (IC50) against Acetylcholinesterase [1] of 63 µM. Against the preceding molecule, the IC50 is about 4.3-fold higher.
On Acetylcholinesterase [1], `COc1cc2c(cc1OC)C(=O)C(CC1CCN(Cc3ccc(C(=O)O)cc3)CC1)C2` (centres undefined) came in with an IC50 of 72.2 µM. This IC50 and that of the molecule before are within 1.5-fold of each other.
In turn, `NCc1cccc(CN2CCC(CCN3C(=O)c4ccccc4C3=O)CC2)c1` yielded an apparent permeability (Papp) at 8 h in “in vitro” of 14 nm/s. Further, 0.299 µM corresponded to half-maximal inhibition against Acetylcholinesterase [1] (IC50).
In the case of `NCc1ccc(CN2CCC(CCN3C(=O)c4ccccc4C3=O)CC2)cc1`, the IC50 at Acetylcholinesterase [1] was determined as 1.54 µM.
On the same count and under the same terms, for `COc1cc2c(cc1OC)C(=O)C(CC1CCN(Cc3ccc(N)cc3)CC1)C2` (centres undefined) the value was 0.0991 µM; for `COc1cc2c(cc1OC)C(=O)C(CC1CCN(Cc3ccc(CN)cc3)CC1)C2` (centres undefined), 5.8 µM.
In turn, `Nc1ccc(CN2CCC(CN3C(=O)c4ccccc4C3=O)CC2)cc1` had a 50% inhibitory concentration (IC50) against Acetylcholinesterase [1] of 25.2 µM. This IC50 lies about 4.3-fold higher than the previous one.
In the series “in vitro”, `COc1cc2c(cc1OC)C(=O)C(CC1CCN(Cc3cccc(N)c3)CC1)C2` (centres undefined) showed a Papp at 8 h of 37 nm/s. This molecule returned an IC50 at Acetylcholinesterase [1] of 0.0473 µM.
In the case of `COc1cc(O)c(C(=O)Nc2nc(C(=O)NCCN(C(C)C)C(C)C)cs2)cc1OC` [ACOTIAMIDE], the logP in series [2] was < 2. Besides, in “physchem”, the log distribution coefficient (logD) amounted to 0.7. Also, the IC50 against Acetylcholinesterase [3] was found to be 3 µM.
For the molecule `Clc1cccc(Cl)c1N=C1NCCN1` [CLONIDINE], the Papp at 8 h in “in vitro” worked out at 122 nm/s.
Regarding `NCCc1ccc(O)c(O)c1` [DOPAMINE], the Papp at 8 h in the series “in vitro” is 33 nm/s.
